# Columns and labels:
# [1] = tested on: TNBS-induced colitis; assay: TNBS model of colitis with and without broad-spectrum antibiotic or vancomycin pretreatment (Example 5); format: in vivo, Balb/c mice
# Procedure: Additional experiments were carried out using the TNBS model (described supra) using a BSC in combination with an antibiotic. In these experiments, three-week-old male Balb/c mice, 24 per group (9 in the naïve control group), were treated according to Table 4.
# Either vancomycin (Groups 5 and 6) or an antibiotic mixture (Groups 7 and 8) was administered to mice in their drinking water prior to receiving treatment to evaluate the effect on BSC efficacy (Groups 5-8). Mice were dosed by oral gavage with either PBS (Groups 2, 5, and 7) or BSC (Groups 6 and 8) three times per week starting on Day 7 and continuing through the end of the study (Day 35). Mice in group 4 received BSC three times per week by oral gavage starting on Day 0. On day 28, mice were anesthetized with isoflurane and received intracolonic 2% TNBS (Groups 2-8). Periodic measurements included body weight and clinical scores. On Day 35, animals were euthanized and gross pathology was evaluated. Colon samples were prepared for histopathology and scored by a pathologist blinded to treatment group and the nature of the Test Item.
# [2] = tested on: DSS-induced colitis; format: in vivo
# Procedure: To further examine the effect of antibiotic and a BSC on ulcerative colitis, the DSS model described supra was used with the addition of arms evaluating vancomycin as the sole antibiotic. In this experiment, three-week-old male C57B1/6 mice, 15 per group (9 in the Naïve control group), were treated according to the Table 2.
# Either vancomycin (Groups 5 and 6) or an antibiotic mixture (Groups 7 and 8) was administered to mice in their drinking water prior to receiving treatment to evaluate the effect on BSC efficacy. Mice were dosed by oral gavage with either PBS (Groups 2, 5, and 7) or BSC (Groups 6 and 8) three times per week starting on Day 9 and continuing through the end of the study (Day 38). Group 4 was dosed with a BSC three times per week starting on Day 0. On days 28-32, mice were exposed to 2% DSS in their drinking water (Groups 2-8) and observed until Day 38. Periodic measurements included body weight and clinical scores. On Day 38, animals were euthanized and features of the colon were evaluated including weight, length, and gross pathology. Colon samples were prepared for histopathology and scored by a pathologist blinded to treatment group and the nature of the Test Item.
# [3] = vs Negative Control (Group 2), Day 38
smiles,measurement,setting,value
"CN[C@H](CC(C)C)C(=O)N[C@H]1C(=O)N[C@@H](CC(N)=O)C(=O)N[C@H]2C(=O)N[C@H]3C(=O)N[C@H](C(=O)N[C@H](C(=O)O)c4cc(O)cc(O)c4-c4cc3ccc4O)[C@H](O)c3ccc(c(Cl)c3)Oc3cc2cc(c3O[C@@H]2O[C@H](CO)[C@@H](O)[C@H](O)[C@H]2O[C@H]2C[C@](C)(N)[C@H](O)[C@H](C)O2)Oc2ccc(cc2Cl)[C@H]1O [Vancomycin, vancomycin]",protection against weight loss,[1]; antibiotic pretreatment alone,no effect
same,dead or euthanized / group size,"[1]; following TNBS induction, Positive Control = anti-IL12",2/24
same,Mortality,"[1]; following TNBS induction, Positive Control = anti-IL12, Negative Control 33%",8%
same,histopathology scores,"[1]; vs Negative Control Group 2, BSC p=0.14",not different
same,clinical scores,"[1]; vs Negative Control Group 2, Positive Control = anti-IL12",not statistically improved
same,colon pathology (gross pathology and histopathology scores),[2]; compared to naïve mice,worsening in colon pathology
same,protection against DSS-induced disease / pathology,[2]; vs Negative Control,significant protection
same,clinical score,[2]; vs Negative Control (Group 2),reduced clinical scores
same,colon pathology (overall),[2]; vs Negative Control (Group 2),overall improvement in colon pathology
same,colon weight,[2]; vs Negative Control (Group 2),reduced colon weight
same,maximal body weight loss / body weight loss (in words),[2]; vs Negative Control (Group 2),significantly reduced
same,colon length,[2]; [3],increased colon length
same,gross pathology score,[2]; [3],improved
same,histopathology score,[2]; [3],improved
